Measurements from patent publication US20230277553A1, “THERAPEUTIC COMPOSITION OF CURE-PRO COMPOUNDS FOR TARGETED DEGRADATION OF BET DOMAIN PROTEINS, AND METHODS OF MAKING AND USAGE” (CORNELL UNIVERSITY, priority 2020, published 2023).
“Also recorded” adds a separate entry of the source.

Experiments:
[1] = target: T1, BRD4 (Homo sapiens, UniProt O60885); experiment: Summary of BRD4 degradation by CURE-PRO pairs, estimated from Western Blot or WES (Proteinsimple); format: cell-based; parameters: endogenous in cells; conditions: for Degradation of BRD4 in combination with CRBN ligand [drawing 407]: Table 4, aryl-boronic acid-containing CRBN ligand, first drawing (by text: 8048); for Degradation of BRD4 in combination with CRBN ligand [drawing 371] / Degradation of BRD4 in combination with CRBN ligand [drawing 372] / Degradation of BRD4 in combination with CRBN ligand [drawing 370]: Table 1; for Degradation of BRD4 in combination with CRBN ligand [drawing 371]: second drawing (8047); for Degradation of BRD4 in combination with CRBN ligand [drawing 372]: third drawing (8066); for Degradation of BRD4 in combination with CRBN ligand [drawing 370]: aromatic 1,2-diol- or hindered cis-1,2-diol-containing CRBN ligand, first drawing (8046); for Degradation of BRD4 in combination with VHL ligand [drawing 397]: Table 3, aromatic 1,2-diol-containing VHL ligand, second drawing (8305)
From the text: A black check mark indicates efficacy of 30% to 70% or higher protein degradation.

[2] = target: T1, BRD4; experiment: CURE-PRO-mediated BRD4 degradation, Western blot, HeLa cells; format: cell-based; parameters: endogenous in cells; host or cells: HeLa; conditions: 24 h, Western blot; for BRD4 degradation, co-treatment with CRBN ligand 8048: 1:1 with 8048, 1-10 μM each; for BRD4 degradation, BRD ligand alone: BRD monomer alone; for BRD4 degradation, co-treatment with CRBN ligand 8047: 1:1 with 8047, 10 μM each; for BRD4 degradation, co-treatment with CRBN ligand 8066: 1:1 with 8066, 10 μM each (BRD-E10: 10 and 100 μM); for BRD4 degradation, co-treatment with CRBN ligand 8049: 1:1 with 8049, 1-10 μM each
Description: All cell lines were purchased from ATCC or DSMZ and grown at 37° C. with 5% CO2. Human HeLa cells were cultured in complete growth medium (Dulbecco's modified Eagle's medium (DMEM) supplemented with 10% FBS); MCF7 cells were cultured in complete growth medium (Dulbecco's modified Eagle's medium (DMEM) supplemented with 10% FBS and 0.01 mg/ml human recombinant insulin (Sigma Aldrich); Namalwa and MOLM-13 cells were cultured in complete growth medium (RPMI 1640 medium supplemented with 10% FBS); MV-4-11 were cultured in complete growth medium (Iscove's Modified Dulbecco's medium, supplemented with 10% FBS); HCT116 cells were cultured in complete growth medium (McCoy's 5a Medium supplemented with 10% FBS). For cellular degradation of BRD4 studies, cells were seeded in a 12-well plate at 70-80% confluency, allowed to attach overnight, and incubated with the indicated compounds for the indicated time. When indicated, a 15-minute pretreatment with 10 μM pomalidomide, 10 μM VHL298, 10 μM Nutlin3a, 1 μM MG-132 or 1 μM Carfilzomib was performed before the addition of CURE-PROs. For washout studies, after CURE-PRO treatment, media was aspirated and incubated with complete medium for the indicated time before lysis.
Anti-BRD4 (13440, 1:1,000 dilution for Western Blot and 1:25 dilution for ProteinSimple); Anti-BRD2 (5848 1:1,000 dilution for Western Blot and 1:25 dilution for ProteinSimple); β-Actin (3700, 1:2,000 dilution for Western Blot), β-Actin (4970, 1:50 dilution for ProteinSimple) anti-mouse IgG-HRP, and anti-rabbit IgG-HRP antibodies were purchased Cell Signaling Technology. Anti-GAPDH (600-401-A33, 1:100 dilution for ProteinSimple) was purchased from Rockland Immunochemicals, Inc. Anti-BRD3 (sc-81202, 1:200 dilution for Western Blot) was purchased from Santa Cruz Biotechnology.
HeLa, MCF7, or HCT116 cells (2.5-3×10^6) were treated for 24 hours with the indicated compounds solubilized in DMSO. The cells were washed in ice-cold PBS and were then lysed in RIPA lysis buffer (150 mM NaCl, 5 mM EDTA, 1% NP-40, 0.5% sodium deoxycholate, 0.1% SDS, 50 mM Tris, pH 8.0.) with Roche protease inhibitor complete cocktail and phosphatase inhibitors (10 mM sodium fluoride, 10 mM sodium pyrophosphate, 1 mM sodium orthovanadate and 20 mM β-glycerophosphate). The total protein concentrations were determined by Bradford Protein Assay and 10-20 μg of protein was loaded onto 4-15% Tris-Glycine gradient gels (Biorad). After standard gel electrophoresis, the separated proteins were transferred to PVDF membrane by wet transfer. The immunoblots were then blocked for 1 hour in 5% skim milk in TBST or 5% BSA in TBST, according to manufacturer's instructions, before an overnight incubation at 4° C. with indicated antibodies and membranes. Membranes were then incubated with the appropriate horseradish peroxidase-conjugated secondary antibodies (1:5,000 dilution) for 1 h at room temperature and the bands were visualized using the Clarity Max Western ECL Substrate (Biorad) and the ChemiDoc Imaging System (Biorad). Signal was detected with ECL Western Blotting Substrate (Pierce) and X-ray film processed with a Konica SRX-101 X-ray film processor or captured by Bio-Rad's Chemidoc Imaging system.
HeLa cells (2.5×106) were treated for 24 hours with the sample compounds solubilized in DMSO. Compounds were added at 1-10 μM each. Standardized protein samples were electrophoresed and imaged as described in the immunoblotting description above. FIGS. 6-18 depicts the CURE-PRO-mediated BRD4 degradation for BRD monomers (JQ1 derivatives comprising of catechol linkers), and CRBN ligands, 8048 and 8049 (pomalidomide derivatives comprising boronic acid linkers) combined in a 1:1 ratio.
HeLa cells (2.5×106) were treated for 24 hours with the compounds solubilized in DMSO. The compounds were added at 10 μM each. Standardized protein samples were electrophoresed and imaged as described in the immunoblotting section above. […]

CCNC(=O)C[C@@H]1N=C(c2ccc(Cl)cc2)c2cc(OCCOCCNC(=O)c3ccc(O)c(O)c3)ccc2-n2c(C)nnc21 [BRD-N38, N-(2-(2-(((4S)-6-(4-chlorophenyl)-4-(2-(ethylamino)-2-oxoethyl)-1-methyl-4H-benzo[f][1,2,4]triazolo[4,3-a][1,4]diazepin-8-yl)oxy)ethoxy)ethyl)-3,4-dihydroxybenzamide]
Degradation of BRD4 in combination with CRBN ligand [drawing 407] [1]: ✓ (A black check mark indicates efficacy of 30% to 70% or higher protein degradation)
BRD4 degradation, co-treatment with CRBN ligand 8048 [2]: causes degradation of BRD4
BRD4 degradation, BRD ligand alone [2]: no degradation of BRD4

COc1ccc2c(c1)C(c1ccc(Cl)cc1)=N[C@@H](CC(=O)NCCNC(=O)Cc1ccc(O)c(O)c1)c1nnc(C)n1-2 [BRD-N30]
Degradation of BRD4 in combination with CRBN ligand [drawing 407] [1]: ✓ (A black check mark indicates efficacy of 30% to 70% or higher protein degradation)
BRD4 degradation, co-treatment with CRBN ligand 8048 [2]: causes degradation of BRD4
BRD4 degradation, BRD ligand alone [2]: no degradation of BRD4

COc1ccc2c(c1)C(c1ccc(Cl)cc1)=N[C@@H](CC(=O)NCCCNC(=O)c1cccc(B(O)O)c1)c1nnc(C)n1-2 [BRD-E4]
Degradation of BRD4 in combination with CRBN ligand [drawing 371] [1]: ✓ (A black check mark indicates efficacy of 30% to 70% or higher protein degradation)
Degradation of BRD4 in combination with CRBN ligand [drawing 372] [1]: ✓ (A black check mark indicates efficacy of 30% to 70% or higher protein degradation)
Degradation of BRD4 in combination with CRBN ligand [drawing 370] [1]: ✓ (A black check mark indicates efficacy of 30% to 70% or higher protein degradation)
BRD4 degradation, co-treatment with CRBN ligand 8046 ([2]; 1:1 with 8046, 10 μM each): causes degradation of BRD4; also recorded: Degradation is noted
BRD4 degradation, co-treatment with CRBN ligand 8047 [2]: causes degradation of BRD4; also recorded: Degradation is noted
BRD4 degradation, co-treatment with CRBN ligand 8066 [2]: causes degradation of BRD4; also recorded: Degradation is noted

COc1ccc2c(c1)C(c1ccc(Cl)cc1)=N[C@@H](CC(=O)NCCCCNC(=O)c1ccc(O)c(O)c1)c1nnc(C)n1-2 [BRD-N5]
Degradation of BRD4 in combination with CRBN ligand [drawing 407] [1]: ✓ (A black check mark indicates efficacy of 30% to 70% or higher protein degradation)
BRD4 degradation, co-treatment with CRBN ligand 8048 [2]: causes degradation of BRD4; also recorded: Degradation is noted
BRD4 degradation, co-treatment with CRBN ligand 8049 [2]: no evidence of BRD4 degradation
BRD4 degradation, BRD ligand alone [2]: no degradation of BRD4

CCNC(=O)C[C@@H]1N=C(c2ccc(Cl)cc2)c2cc(OCCOCCOCCOCCOCCOCCNC(=O)c3ccc(O)c(O)c3)ccc2-n2c(C)nnc21 [BRD-N70, N-(17-(((4S)-6-(4-chlorophenyl)-4-(2-(ethylamino)-2-oxoethyl)-1-methyl-4H-benzo[f][1,2,4]triazolo[4,3-a][1,4]diazepin-8-yl)oxy)-3,6,9,12,15-pentaoxaheptadecyl)-3,4-dihydroxybenzamide]
Degradation of BRD4 in combination with CRBN ligand [drawing 407] [1]: ✓ (A black check mark indicates efficacy of 30% to 70% or higher protein degradation)
BRD4 degradation, co-treatment with CRBN ligand 8048 [2]: causes degradation of BRD4; also recorded: Degradation is noted
BRD4 degradation, co-treatment with CRBN ligand 8049 [2]: no evidence of BRD4 degradation

CCNC(=O)C[C@@H]1N=C(c2ccc(SCc3ccc(B(O)O)cc3)cc2)c2cc(OC)ccc2-n2c(C)nnc21 [BRD-E54]
Degradation of BRD4 in combination with VHL ligand [drawing 397] [1]: ✓ (A black check mark indicates efficacy of 30% to 70% or higher protein degradation)

COc1ccc2c(c1)C(c1ccc(Cl)cc1)=N[C@@H](CC(=O)NCCCCNC(=O)c1ccc(B(O)O)cc1)c1nnc(C)n1-2 [BRD-E5]
Degradation of BRD4 in combination with CRBN ligand [drawing 371] [1]: ✓ (A black check mark indicates efficacy of 30% to 70% or higher protein degradation)
Degradation of BRD4 in combination with CRBN ligand [drawing 372] [1]: ✓ (A black check mark indicates efficacy of 30% to 70% or higher protein degradation)
BRD4 degradation, co-treatment with CRBN ligand 8047 [2]: causes degradation of BRD4; also recorded: Degradation is noted
BRD4 degradation, co-treatment with CRBN ligand 8066 [2]: causes degradation of BRD4; also recorded: Degradation is noted

COc1ccc2c(c1)C(c1ccc(Cl)cc1)=N[C@@H](CC(=O)NCCNC(=O)c1ccc(O)c(O)c1)c1nnc(C)n1-2 [BRD-N1]
Degradation of BRD4 in combination with CRBN ligand [drawing 407] [1]: ✓ (A black check mark indicates efficacy of 30% to 70% or higher protein degradation)
BRD4 degradation, co-treatment with CRBN ligand 8048 [2]: causes degradation of BRD4; also recorded: Degradation is noted
BRD4 degradation, co-treatment with CRBN ligand 8049 [2]: no evidence of BRD4 degradation
BRD4 degradation, BRD ligand alone [2]: no degradation of BRD4

CCNC(=O)C[C@@H]1N=C(c2ccc(Cl)cc2)c2cc(OCCOCCNC(=O)c3ccc(B(O)O)cc3)ccc2-n2c(C)nnc21 [BRD- E39]
Degradation of BRD4 in combination with CRBN ligand [drawing 370] [1]: ✓ (A black check mark indicates efficacy of 30% to 70% or higher protein degradation)

COc1ccc2c(c1)C(c1ccc(Cl)cc1)=N[C@@H](CC(=O)NCCNC(=O)Cc1cccc(B(O)O)c1)c1nnc(C)n1-2 [BRD- E38]
Degradation of BRD4 in combination with CRBN ligand [drawing 371] [1]: ✓ (A black check mark indicates efficacy of 30% to 70% or higher protein degradation)

CCNC(=O)C[C@@H]1N=C(c2ccc(Cl)cc2)c2cc(OCCOCCOCCNC(=O)c3ccc(O)c(O)c3)ccc2-n2c(C)nnc21 [BRD- N40]
Degradation of BRD4 in combination with aryl-boronic acid-containing VHL ligand ([1]; Table 6, head shows drawings [drawing 429] and [drawing 430]): ✓ (A black check mark indicates efficacy of 30% to 70% or higher protein degradation)

COc1ccc2c(c1)C(c1ccc(Cl)cc1)=N[C@@H](CC(=O)Nc1ccc(O)c(O)c1)c1nnc(C)n1-2 [BRD-N68]
Degradation of BRD4 in combination with CRBN ligand [drawing 407] [1]: ✓ (A black check mark indicates efficacy of 30% to 70% or higher protein degradation)

COc1ccc2c(c1)C(c1ccc(Cl)cc1)=N[C@@H](CC(=O)NCCCCCNC(=O)c1ccc(B(O)O)cc1)c1nnc(C)n1-2 [BRD- E07]
Degradation of BRD4 in combination with CRBN ligand [drawing 372] [1]: ✓ (A black check mark indicates efficacy of 30% to 70% or higher protein degradation)

COc1ccc2c(c1)C(c1ccc(Cl)cc1)=N[C@@H](CC(=O)NCc1ccc(B(O)O)cc1)c1nnc(C)n1-2 [BRD-E09, (4-((2-((4S)-6-(4-chlorophenyl)-8-methoxy-1-methyl-4H-benzo[f][1,2,4]triazolo[4,3-a][1,4]diazepin-4-yl)acetamido)methyl)phenyl)boronic acid]
Degradation of BRD4 in combination with VHL ligand [drawing 397] [1]: ✓ (A black check mark indicates efficacy of 30% to 70% or higher protein degradation)

COc1ccc2c(c1)C(c1ccc(Cl)cc1)=N[C@@H](CC(=O)NCCNC(=O)c1cccc(B(O)O)c1)c1nnc(C)n1-2 [BRD-E2]
Degradation of BRD4 in combination with VHL ligand [drawing 397] [1]: ✓ (A black check mark indicates efficacy of 30% to 70% or higher protein degradation)
